Experimental findings from patent US20240116985A1, “STAPLED PEPTIDES AND METHODS THEREOF” (priority 2020, published 2024) are described below.

For orientation: IC50 means the concentration at which inhibition is half-maximal.

This assay has as its target T1, full-length beta-Catenin (Uniprot ID P35222) (Homo sapiens, UniProt P35222).
T1 construct: 10 nM full-length beta-Catenin (Uniprot ID P35222)
T1 sequence (P35222 1-781): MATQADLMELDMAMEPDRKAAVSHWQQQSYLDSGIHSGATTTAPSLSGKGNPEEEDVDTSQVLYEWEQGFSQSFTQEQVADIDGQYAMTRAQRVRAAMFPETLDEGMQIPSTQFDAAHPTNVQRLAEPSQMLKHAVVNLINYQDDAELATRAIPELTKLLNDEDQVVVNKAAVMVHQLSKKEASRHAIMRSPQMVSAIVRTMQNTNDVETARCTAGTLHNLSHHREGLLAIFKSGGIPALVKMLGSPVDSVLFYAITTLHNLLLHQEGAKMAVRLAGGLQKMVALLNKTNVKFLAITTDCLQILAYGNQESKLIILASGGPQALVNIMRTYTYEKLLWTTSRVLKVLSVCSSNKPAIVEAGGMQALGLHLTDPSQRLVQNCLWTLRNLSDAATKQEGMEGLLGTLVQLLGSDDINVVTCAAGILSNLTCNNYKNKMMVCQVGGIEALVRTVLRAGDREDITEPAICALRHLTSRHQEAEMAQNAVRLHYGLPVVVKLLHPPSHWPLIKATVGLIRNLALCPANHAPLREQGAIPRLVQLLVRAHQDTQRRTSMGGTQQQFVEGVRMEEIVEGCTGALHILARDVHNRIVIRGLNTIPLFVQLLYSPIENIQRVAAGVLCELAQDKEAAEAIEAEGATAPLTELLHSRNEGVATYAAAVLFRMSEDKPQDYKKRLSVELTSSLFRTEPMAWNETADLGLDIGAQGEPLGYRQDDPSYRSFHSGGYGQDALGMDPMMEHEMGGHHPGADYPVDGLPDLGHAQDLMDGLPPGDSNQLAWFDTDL
Kind of assay: Fluorescence polarization IC50 (beta-catenin / 5FAM-TCF4 10-53 competition). Format: binding. To be noted: fluorescence polarization; read-out: beta-Catenin FP IC50. (Fluorescence polarisation rises when a labelled molecule tumbles more slowly, as on binding a larger partner.)

With `CC(=O)N1CCC[C@]12CC=CCCCC1(CCCC=CCCCCC[C@@](C)(C(=O)N[C@@H](Cc3ccsc3)C(=O)N[C@@H](Cc3csc4ccccc34)C(=O)N[C@@H](CCC(N)=O)C(N)=O)NC(=O)[C@H](CC(N)=O)NC(=O)[C@H](Cc3ccccc3)NC(=O)[C@H](C)NC(=O)[C@H](C)NC(=O)[C@H](CC(=O)O)NC(=O)[C@H](CC(=O)O)NC1=O)NC(=O)[C@H](CC(C)(C)C)NC(=O)[C@H](CC(=O)O)NC2=O` (stereo partly drawn) [I-1819, Ac-PL3-Asp-Npg-B5-Asp-Asp-Ala-Ala-Phe-Asn-S7-3Thi-BztA-Gln-NH2], the IC50 was determined as 615 nM.

For the compound `CC(=O)N1CCC[C@]12CC=CCCCC1(CCCC=CCCCCC[C@@](C)(C(=O)N[C@@H](Cc3ccsc3)C(=O)N[C@@H](Cc3csc4ccccc34)C(=O)N[C@@H](CCC(N)=O)C(N)=O)NC(=O)[C@H](CC(C)C)NC(=O)[C@H](Cc3ccccc3)NC(=O)[C@H](C)NC(=O)[C@H](C)NC(=O)[C@H](CC(=O)O)NC(=O)[C@H](CC(=O)O)NC1=O)NC(=O)[C@H](CC(C)(C)C)NC(=O)[C@H](CC(=O)O)NC2=O` (stereo partly drawn) [I-1820, Ac-PL3-Asp-Npg-B5-Asp-Asp-Ala-Ala-Phe-Leu-S7-3Thi-BztA-Gln-NH2], the IC50 was determined as 422 nM.

Regarding `CC(=O)N1CCC[C@]12CCCCCCC1(CCCCCCCCCC[C@@](C)(C(=O)N[C@@H](Cc3ccsc3)C(=O)N[C@@H](Cc3csc4ccccc34)C(=O)N[C@@H](CCC(N)=O)C(N)=O)NC(=O)[C@H](CC(N)=O)NC(=O)[C@H](Cc3ccccc3)NC(=O)[C@H](C)NC(=O)[C@H](C)NC(=O)[C@H](CC(=O)O)NC(=O)[C@H](CC(=O)O)NC1=O)NC(=O)[C@H](CC(C)(C)C)NC(=O)[C@H](CC(=O)O)NC2=O` (stereo partly drawn) [I-1825, Ac-PL3-Asp-Npg-B5-Asp-Asp-Ala-Ala-Phe-Asn-S7-3Thi-BztA-Gln-NH2], the IC50 stood at 366 nM.

Take `CC(=O)N1CCC[C@]12CC=CCCCC1(CCCC=CCOC(=O)N3CC(C(=O)N[C@@H](Cc4ccsc4)C(=O)N[C@@H](Cc4csc5ccccc45)C(=O)N[C@@H](CCC(N)=O)C(N)=O)(C3)NC(=O)[C@H](CC(N)=O)NC(=O)[C@H](Cc3ccccc3)NC(=O)[C@H](C)NC(=O)[C@H](C)NC(=O)[C@H](CC(=O)O)NC(=O)[C@H](CC(=O)O)NC1=O)NC(=O)[C@H](CC(C)(C)C)NC(=O)[C@H](CC(=O)O)NC2=O` (stereo partly drawn) [I-1826, Ac-PL3-Asp-Npg-B5-Asp-Asp-Ala-Ala-Phe-Asn-Az-3Thi-BztA-Gln-NH2]: the IC50 is 474 nM.

With `CC(=O)N1CCC[C@]12CC=CCCCC1(CCCC=CCOC(=O)N3CC(C(=O)N[C@@H](Cc4ccsc4)C(=O)N[C@@H](Cc4csc5ccccc45)C(=O)N[C@@H](CCC(N)=O)C(N)=O)(C3)NC(=O)[C@H](CC(N)=O)NC(=O)[C@H](Cc3ccccc3)NC(=O)[C@H](C)NC(=O)[C@H](C)NC(=O)[C@H](CC(=O)O)NC(=O)[C@H](CC(=O)O)NC1=O)NC(=O)[C@H](CC(C)(C)C)NC(=O)[C@H](CC(=O)O)NC2=O` (stereo partly drawn) [I-1827, Ac-PL3-Asp-Npg-B5-Asp-Asp-Ala-Ala-Phe-Asn-Az-3Thi-BztA-Gln-NH2], the IC50 was 308 nM.

Regarding `CC(=O)N1CCC[C@]12CC=CCCCC1(CCCC=CCOC(=O)N(C)CC[C@@](C)(C(=O)N[C@@H](Cc3ccsc3)C(=O)N[C@@H](Cc3csc4ccccc34)C(=O)N[C@@H](CCC(N)=O)C(N)=O)NC(=O)[C@H](CC(N)=O)NC(=O)[C@H](Cc3ccccc3)NC(=O)[C@H](C)NC(=O)[C@H](C)NC(=O)[C@H](CC(=O)O)NC(=O)[C@H](CC(=O)O)NC1=O)NC(=O)[C@H](CC(C)(C)C)NC(=O)[C@H](CC(=O)O)NC2=O` (stereo partly drawn) [I-1829, Ac-PL3-Asp-Npg-B5-Asp-Asp-Ala-Ala-Phe-Asn-SdN-3Thi-BztA-Gln-NH2], the IC50 worked out at 668 nM.

As to `CC(=O)N1CCC[C@]12CC=CCCCC1(CCCC=CCOC(=O)N(C)CC[C@@](C)(C(=O)N[C@@H](Cc3ccsc3)C(=O)N[C@@H](Cc3csc4ccccc34)C(=O)N[C@@H](CCC(N)=O)C(N)=O)NC(=O)[C@H](CC(C)C)NC(=O)[C@H](Cc3ccccc3)NC(=O)[C@H](C)NC(=O)[C@H](C)NC(=O)[C@H](CC(=O)O)NC(=O)[C@H](CC(=O)O)NC1=O)NC(=O)[C@H](CC(C)(C)C)NC(=O)[C@H](CC(=O)O)NC2=O` (stereo partly drawn) [I-1830, Ac-PL3-Asp-Npg-B5-Asp-Asp-Ala-Ala-Phe-Leu-SdN-3Thi-BztA-Gln-NH2], the IC50 was determined as 313 nM.

Take `CC(=O)N1CCC[C@]12CCCCCCC1(CCCCCCOC(=O)N3CC(C(=O)N[C@@H](Cc4ccsc4)C(=O)N[C@@H](Cc4csc5ccccc45)C(=O)N[C@@H](CCC(N)=O)C(N)=O)(C3)NC(=O)[C@H](CC(N)=O)NC(=O)[C@H](Cc3ccccc3)NC(=O)[C@H](C)NC(=O)[C@H](C)NC(=O)[C@H](CC(=O)O)NC(=O)[C@H](CC(=O)O)NC1=O)NC(=O)[C@H](CC(C)(C)C)NC(=O)[C@H](CC(=O)O)NC2=O` (stereo partly drawn) [I-1831, Ac-PL3-Asp-Npg-B5-Asp-Asp-Ala-Ala-Phe-Asn-Az-3Thi-BztA-Gln-NH2]: the IC50 came to 1630 nM.

With `CC(=O)N1CCC[C@]12CCCCCCC1(CCCCCCOC(=O)N3CC(C(=O)N[C@@H](Cc4ccsc4)C(=O)N[C@@H](Cc4csc5ccccc45)C(=O)N[C@@H](CCC(N)=O)C(N)=O)(C3)NC(=O)[C@H](CC(C)C)NC(=O)[C@H](Cc3ccccc3)NC(=O)[C@H](C)NC(=O)[C@H](C)NC(=O)[C@H](CC(=O)O)NC(=O)[C@H](CC(=O)O)NC1=O)NC(=O)[C@H](CC(C)(C)C)NC(=O)[C@H](CC(=O)O)NC2=O` (stereo partly drawn) [I-1832, Ac-PL3-Asp-Npg-B5-Asp-Asp-Ala-Ala-Phe-Leu-Az-3Thi-BztA-Gln-NH2], the IC50 was 1110 nM.

For the compound `CC(=O)N1CCC[C@]12CC=CCCCC1(CCCC=CCCCOC(=O)N3CC[C@@](C(=O)N[C@@H](Cc4ccsc4)C(=O)N[C@@H](Cc4csc5ccccc45)C(=O)N[C@@H](CCC(N)=O)C(N)=O)(C3)NC(=O)[C@H](CC(C)C)NC(=O)[C@H](Cc3ccccc3)NC(=O)[C@H](C)NC(=O)[C@H](C)NC(=O)[C@H](CCN(CC(=O)O)CC(=O)O)NC(=O)[C@H](CC(=O)O)NC1=O)NC(=O)[C@H](CC(C)(C)C)NC(=O)[C@H](CC(=O)O)NC2=O` (stereo partly drawn) [I-1836, Ac-PL3-Asp-Npg-B5-Asp-[CH2CO2H]GAbu-Ala-Ala-Phe-Leu-PyrS2-3Thi-BztA-Gln-NH2], the IC50 was determined as 24 nM.

In the case of `CC(=O)N1CCC[C@]12CC=CCCCC1(CCCC=CCCCOC(=O)N3CC[C@@](C(=O)N[C@@H](Cc4ccsc4)C(=O)N[C@@H](Cc4csc5ccccc45)C(=O)N[C@@H](CCC(N)=O)C(N)=O)(C3)NC(=O)[C@H](CC(C)C)NC(=O)[C@H](Cc3ccccc3)NC(=O)[C@H](C)NC(=O)[C@H](C)NC(=O)[C@H](CCN(CCN3CCOCC3)CC(=O)O)NC(=O)[C@H](CC(=O)O)NC1=O)NC(=O)[C@H](CC(C)(C)C)NC(=O)[C@H](CC(=O)O)NC2=O` (stereo partly drawn) [I-1842, Ac-PL3-Asp-Npg-B5-Asp-[MorphEt]GAbu-Ala-Ala-Phe-Leu-PyrS2-3Thi-BztA-Gln-NH2], the IC50 was 81 nM.

In the case of `CC(=O)N1CCC[C@]12CC=CCCCC1(CCCC=CCCCOC(=O)N3CC[C@@](C(=O)N[C@@H](Cc4ccsc4)C(=O)N[C@@H](Cc4csc5ccccc45)C(=O)N[C@@H](CCC(N)=O)C(N)=O)(C3)NC(=O)[C@H](CC(C)C)NC(=O)[C@H](Cc3ccccc3)NC(=O)[C@H](C)NC(=O)[C@H](C)NC(=O)[C@H](CNc3ccc([N+](=O)[O-])c(C(=O)O)c3)NC(=O)[C@H](CC(=O)O)NC1=O)NC(=O)[C@H](CC(C)(C)C)NC(=O)[C@H](CC(=O)O)NC2=O` (stereo partly drawn) [I-1844, Ac-PL3-Asp-Npg-B5-Asp-[3COOH4NO2Ph]Dap-Ala-Ala-Phe-Leu-PyrS2-3Thi-BztA-Gln-NH2], the IC50 is 227 nM.

With `CC(=O)N1CCC[C@]12CC=CCCCC1(CCCC=CCCCOC(=O)N3CC[C@@](C(=O)N[C@@H](Cc4ccsc4)C(=O)N[C@@H](Cc4csc5ccccc45)C(=O)N[C@@H](CCC(N)=O)C(N)=O)(C3)NC(=O)[C@H](CC(C)C)NC(=O)[C@H](Cn3cc(CN(C)C)nn3)NC(=O)[C@H](C)NC(=O)[C@H](C)NC(=O)[C@H](CN(CC(=O)O)CC(F)(F)F)NC(=O)[C@H](CC(=O)O)NC1=O)NC(=O)[C@H](CC(C)(C)C)NC(=O)[C@H](CC(=O)O)NC2=O` (stereo partly drawn) [I-1855, Ac-PL3-Asp-Npg-B5-Asp-TfeGA-Ala-Ala-[CH2NMe2]TriAzDap-Leu-PyrS2-3Thi-BztA-Gln-NH2], the IC50 amounted to 849 nM.

In the case of `CC(=O)N1CCC[C@]12CC=CCCCC1(CCCC=CCCCOC(=O)N3CC[C@@](C(=O)N[C@@H](Cc4ccsc4)C(=O)N[C@@H](Cc4csc5ccccc45)C(=O)N[C@@H](CCC(N)=O)C(N)=O)(C3)NC(=O)[C@H](CC(C)C)NC(=O)[C@H](Cn3cc(CN4CCNCC4)nn3)NC(=O)[C@H](C)NC(=O)[C@H](C)NC(=O)[C@H](CN(CC(=O)O)CC(F)(F)F)NC(=O)[C@H](CC(=O)O)NC1=O)NC(=O)[C@H](CC(C)(C)C)NC(=O)[C@H](CC(=O)O)NC2=O` (stereo partly drawn) [I-1857, Ac-PL3-Asp-Npg-B5-Asp-TfeGA-Ala-Ala-[CH2Ppz]TriAzDap-Leu-PyrS2-3Thi-BztA-Gln-NH2], the IC50 stood at 4030 nM.
